One test relates to NF-κB. The test can be described thus: NF-κB localization by immunostaining after LPS stimulation, two-dimensional three-cell-type co-culture of astrocytes, neurons and microglia. It counts as cell-based, human. Conditions: LPS 100 ng/mL, no R-7050. The method, then: Matrigel basement membrane matrix (Corning, 356234) diluted 120-fold with DMEM/F12 (Life technologies, 11320-033) was added to a 96-well plate at 65 μL/well and allowed to stand at 4° C. After 24 hours, the culture medium was replaced with a progenitor cell culture medium and used.
Astrocyte precursor cells (XCell Science, XCS-AP-001-1V) were seeded in a 96-well plate at a density of 5×10^4 cells/well and cultured under the conditions of 37° C. and 5% CO2. The next day, the culture medium was replaced with the differentiation-inducing culture medium and further cultured for 5 days to differentiate into astrocytes.
The neurons were produced by forcing expression of the Ngn2 gene from iPS cells (WO2014/148646A; and Zhang Y, et al., Neuron, 78:785-98, 2013), and the cells that had been frozen and stored were used. The cells that had been frozen and stored were thawed in a warm bath at 37° C., and after thawing, the cells were added to the co-culture medium and centrifuged at 600×g at room temperature for 5 minutes. After centrifugation, the supernatant was removed, the cells were suspended in 1 mL of the co-culture medium, and the number of cells was counted.
As the microglia, iPS cell-derived microglia (iCell (registered trademark) Microglia, FCDI, C1110) were used. The cells that had been frozen and stored were thawed in a warm bath at 37° C., and after thawing, the cells were added to the co-culture medium and centrifuged at 600×g at room temperature for 5 minutes. After centrifugation, the supernatant was removed, the cells were suspended in 1 mL of the co-culture medium, and the number of cells was counted.
The neurons and the microglia were mixed in a ratio of 3:1 and seeded on the astrocytes at 4×10^4 cells/well. The cells were cultured under the conditions of 37° C. and 5% CO2, and half of the culture medium was replaced three times a week.
Microglia were specifically stimulated by adding LPS (FUJIFILM Wako Pure Chemical Corporation, 124-05151) at 100 ng/mL to the two-dimensional co-culture that had been cultured for 4 weeks. The cells were fixed by treating, for 30 minutes, with a formaldehyde solution (FUJIFILM Wako Pure Chemical Corporation, 061-00416) diluted 10-fold with PBS(−) (FUJIFILM Wako Pure Chemical Corporation, 166-23555) without treatment, and at 0.5 hours, 1 hour, 3 hours, 6 hours, and 24 hours after the treatment.
In addition, in the two-dimensional co-culture that had been cultured for 19 days, LPS (FUJIFILM Wako Pure Chemical Corporation, 124-05151) was added at 100 ng/ml and R-7050 (Cayman Chemical Company, 16870), which is a TNFR1 inhibitor, was added at 10 μmol/L, and the effect of TNF-α on the intercellular interaction induced by LPS stimulation was evaluated. The cells were fixed by treating, for 30 minutes, with a formaldehyde solution (FUJIFILM Wako Pure Chemical Corporation, 061-00416) diluted 10-fold with PBS (−) (FUJIFILM Wako Pure Chemical Corporation, 166-23555) without treatment, and at 0.5 hours, 1 hour, 3 hours, 6 hours, and 24 hours after the treatment.
The fixed cells were washed with PBS (−), and blocking and permeabilization were performed by treating with a solution (1% BSA/0.2% Triton X-100) in which BSA (Sigma-Aldrich, A4161) and Triton (registered trademark) X-100 (BioVision, 2104-100) were diluted to 1% and 0.2% with PBS (−) for 30 minutes. […]

The test system of a further test is STAT1. The test can be described thus: STAT1 localization by immunostaining after LPS stimulation, three-cell-type co-culture of neurons, astrocytes and microglia. Type of test: cell-based, human. Conditions: LPS 100 ng/mL. The method, then: Microglia were specifically stimulated by adding LPS (FUJIFILM Wako Pure Chemical Corporation, 124-05151) at 100 ng/mL to the two-dimensional co-culture that had been cultured for 4 weeks. The cells were fixed by treating, for 30 minutes, with a formaldehyde solution (FUJIFILM Wako Pure Chemical Corporation, 061-00416) diluted 10-fold with PBS(−) (FUJIFILM Wako Pure Chemical Corporation, 166-23555) without treatment, and at 0.5 hours, 1 hour, 3 hours, 6 hours, and 24 hours after the treatment. […]
The next day, the cells were washed with PBS (−), then as a secondary antibody reaction, treated with Donkey anti-goat Alexa Fluor (registered trademark) 488 (Thermo Fisher Scientific, A11055) diluted 1000-fold, Donkey anti-rabbit Alexa Fluor (registered trademark) 594 (Thermo Fisher Scientific, A32754) diluted 1000-fold, and Hoechst (registered trademark) 33342 (Dojindo, 346-07951) diluted 1000-fold as a secondary antibody reaction, and allowed to stand at room temperature for 60 minutes. After washing with PBS (−), the cells were imaged with a fluorescence microscope (Nikon, ECLIPSE Ti) to acquire an image. […]

lipopolysaccharide [LPS]: the “nuclear translocation of NF-κB” value with NF-κB (0.5 hours and 1 hours after the LPS treatment) is recorded as “only some cells”; in the test on NF-κB (3 hours and 6 hours after the LPS treatment) it was “many cells”. The “STAT1 localized in the nucleus” value is “some cells” with STAT1 (1 hour and 3 hours after the LPS stimulation); “many cells” with STAT1 (6 hours after the stimulation).

These data come from US20260118345A1, “METHOD OF EVALUATING INTERCELLULAR INTERACTIONS IN NEUROINFLAMMATION” (FUJIFILM Corporation, priority 2023, published 2026).
